A short description of series [1]: in vitro. The note with it: human. The protocol: (§1) Purified populations of human blood monocytes were prepared as previously described by differential density centrifugation on Ficoll and Percoll gradients (see Allavena, P., Piemonti, L., Longoni, D., Bernasconi, S., Stoppacciaro, A., Ruco, L., and Mantovani, A. IL-10 prevents the differentiation of monocytes to dendritic cells but promotes their maturation to macrophages. Eur J Immunol, 28: 359-369, 1998). […] Human thymocytes were isolated from resected thymus from pediatric patients undergoing surgery. Thymocytes were obtained by teasing and isolated on Percoll gradient.
(§2) Cells were cultured at 10^6 cells/ml in complete medium RPMI (Biochrom, Berlin, FRG)+10% FCS (Hyclone, Logan, Utah). In vitro differentiated macrophages were obtained by culture of monocytes Monocyte-Colony Stimulating Factor (M-CSF) Peprotech (20 ng/ml), for 5 days. In some experiments, macrophages were treated with LPS (100 ng/ml) Sigma Aldrich, IFN gamma (500 IU/ml) or IL-4 (20 ng/ml) (Schering Plough) for 24 h.
(§3) Cell viability was analyzed by DNA content in Flow Cytometry
(§4) Cells exposed to treatments were fixed with ethanol 70%, washed in PBS and stained with propidium iodide (PI) solution containing 10 ug/ml PI in PBS and 25 μl RNAse 10,000 units, overnight in the dark. PI incorporation was evaluated on at least 20,000 cells/sample using a FACS Calibur instrument (Becton Dickinson, Sunnyvale, Calif., USA), with a bandpass filter at 620 nm. Apoptosis was detected by staining with AnnexinV and PI. FACS analysis was performed using a bandpass filter 530 and 620 nm for green (AnnexinV) and red (PI) fluorescence respectively, in combination with a […] dichroic mirror.
(§5) Purified preparations of blood monocytes, lymphocytes and thymocytes were cultured with different concentrations of ecteinascidin 743 for 48 h. Cell viability was assessed by DNA analysis and propidium iodide (PI) staining in Flow cytometry.
(§6) A kinetics analysis of the cytotoxic effect of ecteinascidin 743 was performed in the presence of M-CSF. Cells were treated with M-CSF (20 ng/ml) and different concentrations of ecteinascidin 743. Samples were collected at the indicated times and tested for DNA analysis.
(§7) Viability was assessed by PI staining and analyzed by Flow Cytometry.

Series [2] deals with blood monocytes. Put plainly: in vitro. The protocol:
as §1, §2, §3, §4, §5, §6, §7

In series [3] the test system is in vitro differentiated macrophages. The experiment in a line: Cell viability of in vitro differentiated macrophages (PI staining, flow cytometry). In kind it is cell-based, human. The protocol: Apoptosis was detected by staining with AnnexinV and PI.
We next studied the effect of ecteinascidin 743 on already differentiated macrophages obtained from monocytes cultured in vitro for 5 days with M-CSF. […] Monocytes were differentiated to macrophages by culture with M-CSF (20 ng/ml). At day 3, ecteinascidin 743 was added to cultures and incubated for 48 h. […] Similar results were obtained in other 4 experiments. In a series of 4 different experiments, IC50 for in vitro differentiated was 10 nM.
We then tested the susceptibility to ecteinascidin 743 of macrophages classically activated by LPS and IFN gamma (or M1 macrophages) and alternatively activated by IL-4 (or M2 macrophages). In vitro differentiated macrophages were stimulated with LPS (100 ng/ml)+IFNgamma (500 UI:ml), Il-4 (20 ng/ml), in the presence or absence of ecteinascidin 743 for 48 h.

The test system of series [4] is IL-6. Put plainly: IL-6 release in TAM (ELISA). In kind it is cell-based. To be noted: Homo sapiens, n=4. The source says:
Tumour-associated macrophages (TAM) and tumour cells were isolated from the ascitic fluid of patients with diagnosed ovarian adenocarcinoma, admitted to the Clinic of Obstetrics and Gynecology of the University of Milan-Bicocca, S Gerardo Hospital. Cells contained in the ascitic fluid were centrifuged and isolated by differential density gradients of Ficoll and Percoll, and plastic adherence as previously described (see Allavena, P., Peccatori, F., Maggioni, D., Erroi, A., Sironi, M., Colombo, N., Lissoni, A., Galazka, A., Meiers, W., Mangioni, C., et al. Intraperitoneal recombinant gamma-interferon in patients with recurrent ascitic ovarian carcinoma: modulation of cytotoxicity and cytokine production in tumour-associated effectors and of major histocompatibility antigen expression on tumour cells. Cancer Res, 50: 7318-7323, 1990). Purity of TAM and tumour cell preparations was usually>65±10% as defined by morphology and phenotype analysis. Cells were treated with ecteinascidin 743 at the indicated concentrations and cultured for 1-5 days, as specified in figure legends. […]
Supernatants of untreated cells or cells treated with ecteinascidin 743 or other anti-neoplastic agents were collected after 24 h culture and frozen. […] Determination of cytokines CCL2, TNF and IL-6 was measured by specific ELISA following the manufacturer's instructions. […]

The test system of series [5] is TNF. Put plainly: TNF production by LPS-stimulated monocytes (ELISA). The format is cell-based, human. To be noted: LPS 100 ng/ml, 16 h incubation. The protocol: Monocytes, macrophages and TAM were stimulated with 100 ng/ml LPS to induce maximal cytokine production. Determination of cytokines CCL2, TNF and IL-6 was measured by specific ELISA following the manufacturer's instructions.
To verify whether the inhibitory effect of ecteinascidin 743 on cytokine production was at the transcriptional level, we analyzed mRNA of CCL2 and TNF from LPS-stimulated macrophages by real time-PCR of CCL2 and TNF transcripts in LPS-stimulated monocytes exposed to ecteinascidin 743.
CCL2 and TNF production by LPS-stimulated monocytes treated with the indicated doses of the anti-tumor agents was also tested. […] […] None of these compounds interfered with the production of TNF.
Background: In an ELISA, binding on a coated surface is turned into a signal by an enzyme label.

As a reminder, the viability is a read-out of living cells in per cent, often relative to untreated cells. One may read the IC50 as the concentration that inhibits the measured activity by half. Broadly, the mortality is the share of the test organisms that died. What is called inhibition is how much of the control response was suppressed.

In the case of `COc1cc2c(cc1O)CCN[C@]21CS[C@@H]2c3c(OC(C)=O)c(C)c4c(c3[C@H](COC1=O)N1[C@@H]2[C@H]2c3c(cc(C)c(OC)c3O)C[C@@H]([C@@H]1O)N2C)OCO4` [ecteinascidin 743], the viability at 5 days, 0.0005 µM in series [1] came out at 92%. Also, the viability at 5 days, 0.001 µM in series [1] came out at 70%. Besides, the monocyte death in series [2] (5 nM, 48 h incubation, with M-CSF) turned out to be 30%; in series [2] (5 nM, 48 h incubation, without M-CSF), 55%; in series [2] (10 nM, 24 h treatment, with M-CSF), 35%; in series [2] (10 nM, 24 h treatment, without M-CSF) it was 65%. The IC50 is 2.5 to 5 nM in series [2] (Homo sapiens, Monocyte, 48 h, read-out: lethal dose 50% (IC50), monocyte mortality) and 10 nM in series [3] (Homo sapiens, Macrophage, drug added in the last 48 h, series of 4 experiments). In addition, the mortality at 0.0025 µM in series [2] (Homo sapiens, Monocyte, 120 h, read-out: mortality of monocytes) fell in the range of 40 to 50%. Also, the “toxicity on monocytes (kinetics)” value in series [2] (higher concentrations, after 24 h incubation, M-CSF 20 ng/ml) is given as “significant toxicity”. Further, the “susceptibility of LPS-stimulated and IL-4-stimulated macrophages” value in series [3] (LPS 100 ng/ml + IFNgamma 500 UI/ml or IL-4 20 ng/ml, 48 h) is “susceptible to drug treatment similarly as non-stimulated macrophages”. Also, the inhibition at 0.005 µM in series [4] (5 nM) was 35%. The molecule further gave an inhibition at 0.01 µM in series [4] (10 nM) of 47%. Also, the “production of TNF by monocytes” value in series [5] is recorded as “never inhibited”.

Values taken from patent publication US20080076772A1, “Anti-Inflammatory Agents” (Pharma Mar S.A. Sociedad Unipersonal, priority 2004, published 2008).
